Test results as given in patent publication US10787452B2 (Vertex Pharmaceuticals Incorporated, priority 2012, dated 2020).

Tested on: HCT116 colorectal cancer cells
Experiment: Cisplatin sensitization assay (96 h cell viability MTS);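 note: compound concentration needed to lower the Cisplatin-alone IC50 by a set fold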
Format: cell-based
Settings: 96 h MTS, compound plus Cisplatin
Procedure, shortened: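 Viability is measured with MTS reagent, added after 96 h and developed for 1 h at 37° C. Beforehand, cells receive compound and cisplatin simultaneously in a concentration matrix of 2-fold serial dilutions starting at 10 μM final.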

SMILES	Cisplatin Sensitization Assay
Nc1nn2cc(F)cnc2c1C(=O)Nc1cnccc1-c1ccc(C(=O)N2CCN(C3COC3)CC2)nc1 [I-C-52, 2-amino-6-fluoro-N-(6-(4-(oxetan-3-yl)piperazine-1-carbonyl)-[3,4′-bipyridin]-3′-yl)pyrazolo[1,5-a]pyrimidine-3-carboxamide]	++ (Compounds with a Cisplatin sensitization value >0.02 μM but <0.2 μM are marked with “++.”)
Nc1nn2cc(F)cnc2c1C(=O)Nc1cnccc1-c1ccc(C(=O)N2CCC(N3CCCC3)CC2)nc1 [I-C-53, 2-amino-6-fluoro-N-(6-(4-(pyrrolidin-1-yl)piperidine-1-carbonyl)-[3,4′-bipyridin]-3′-yl)pyrazolo[1,5-a]pyrimidine-3-carboxamide]	+++ (Compounds with a Cisplatin sensitization value of <0.02 μM are marked with “+++.”)
Nc1nn2cc(F)cnc2c1C(=O)Nc1cnccc1-c1ccc(C(=O)N2CCC(N3CCC3)CC2)nc1 [I-C-54, 2-amino-N-(6-(4-(azetidin-1-yl)piperidine-1-carbonyl)-[3,4′-bipyridin]-3′-yl)-6-fluoropyrazolo[1,5-a]pyrimidine-3-carboxamide]	+++ (Compounds with a Cisplatin sensitization value of <0.02 μM are marked with “+++.”)
Cn1ccnc1-c1ccncc1NC(=O)c1c(N)nn2cc(F)cnc12 [I-C-55, 2-amino-6-fluoro-N-(4-(1-methyl-1H-imidazol-2-yl)pyridin-3-yl)pyrazolo[1,5-a]pyrimidine-3-carboxamide]	+ (Compounds with a Cisplatin sensitization value >0.2 μM but <5 μM are marked with “+.”)
Cn1cncc1-c1ccncc1NC(=O)c1c(N)nn2cc(F)cnc12 [I-C-56, 2-amino-6-fluoro-N-(4-(1-methyl-1H-imidazol-5-yl)pyridin-3-yl)pyrazolo[1,5-a]pyrimidine-3-carboxamide]	+++ (Compounds with a Cisplatin sensitization value of <0.02 μM are marked with “+++.”)
Cn1nccc1-c1ccncc1NC(=O)c1c(N)nn2cc(F)cnc12 [I-C-57, 2-amino-6-fluoro-N-(4-(1-methyl-1H-pyrazol-5-yl)pyridin-3-yl)pyrazolo[1,5-a]pyrimidine-3-carboxamide]	+++ (Compounds with a Cisplatin sensitization value of <0.02 μM are marked with “+++.”)
Cn1c(-c2ccncc2NC(=O)c2c(N)nn3cc(F)cnc23)cccc1=O [I-C-58, 2-amino-6-fluoro-N-(1-methyl-6-oxo-1,6-dihydro-[2,4′-bipyridin]-3′-yl)pyrazolo[1,5-a]pyrimidine-3-carboxamide]	+++ (Compounds with a Cisplatin sensitization value of <0.02 μM are marked with “+++.”)
Cn1cc(-c2ccncc2NC(=O)c2c(N)nn3cc(F)cnc23)ccc1=O [I-C-59, 2-amino-6-fluoro-N-(1-methyl-6-oxo-1,6-dihydro-[3,4′-bipyridin]-3′-yl)pyrazolo[1,5-a]pyrimidine-3-carboxamide]	++ (Compounds with a Cisplatin sensitization value >0.02 μM but <0.2 μM are marked with “++.”)
Nc1nn2cc(F)cnc2c1C(=O)Nc1cnccc1-c1ccccn1 [I-C-60, N-([2,4′-bipyridin]-3′-yl)-2-amino-6-fluoropyrazolo[1,5-a]pyrimidine-3-carboxamide]	++ (Compounds with a Cisplatin sensitization value >0.02 μM but <0.2 μM are marked with “++.”)
CS(=O)(=O)c1ccc(-c2ccncc2NC(=O)c2c(N)nn3cc(F)cnc23)cc1 [I-C-61, 2-amino-6-fluoro-N-(4-(4-(methylsulfonyl)phenyl)pyridin-3-yl)pyrazolo[1,5-a]pyrimidine-3-carboxamide]	+++ (Compounds with a Cisplatin sensitization value of <0.02 μM are marked with “+++.”)
Cc1nccnc1-c1ccncc1NC(=O)c1c(N)nn2cc(F)cnc12 [I-C-62, 2-amino-6-fluoro-N-(4-(3-methylpyrazin-2-yl)pyridin-3-yl)pyrazolo[1,5-a]pyrimidine-3-carboxamide]	++ (Compounds with a Cisplatin sensitization value >0.02 μM but <0.2 μM are marked with “++.”)
Cc1nn(C)cc1-c1ccncc1NC(=O)c1c(N)nn2cc(F)cnc12 [I-C-63, 2-amino-N-(4-(1,3-dimethyl-1H-pyrazol-4-yl)pyridin-3-yl)-6-fluoropyrazolo[1,5-a]pyrimidine-3-carboxamide]	+++ (Compounds with a Cisplatin sensitization value of <0.02 μM are marked with “+++.”)
Nc1nn2cc(F)cnc2c1C(=O)Nc1cnccc1-c1ccc(S(=O)(=O)N2CCC2)cc1 [I-C-64, 2-amino-N-(4-(4-(azetidin-1-ylsulfonyl)phenyl)pyridin-3-yl)-6-fluoropyrazolo[1,5-a]pyrimidine-3-carboxamide]	+++ (Compounds with a Cisplatin sensitization value of <0.02 μM are marked with “+++.”)
Cn1ncnc1-c1ccncc1NC(=O)c1c(N)nn2cc(F)cnc12 [I-C-65, 2-amino-6-fluoro-N-(4-(1-methyl-1H-1,2,4-triazol-5-yl)pyridin-3-yl)pyrazolo[1,5-a]pyrimidine-3-carboxamide]	++ (Compounds with a Cisplatin sensitization value >0.02 μM but <0.2 μM are marked with “++.”)
CN1CCOC[C@@H]1c1ccc(-c2ccncc2NC(=O)c2c(N)nn3cc(F)cnc23)cc1 [I-C-66, (S)-2-amino-6-fluoro-N-(4-(4-(4-methylmorpholin-3-yl)phenyl)pyridin-3-yl)pyrazolo[1,5-a]pyrimidine-3-carboxamide]	+++ (Compounds with a Cisplatin sensitization value of <0.02 μM are marked with “+++.”)
Cc1cncnc1-c1ccncc1NC(=O)c1c(N)nn2cc(F)cnc12 [I-C-67, 2-amino-6-fluoro-N-(4-(5-methylpyrimidin-4-yl)pyridin-3-yl)pyrazolo[1,5-a]pyrimidine-3-carboxamide]	++ (Compounds with a Cisplatin sensitization value >0.02 μM but <0.2 μM are marked with “++.”)
Cn1ccc(-c2ccncc2NC(=O)c2c(N)nn3cc(F)cnc23)n1 [I-C-68, 2-amino-6-fluoro-N-(4-(1-methyl-1H-pyrazol-3-yl)pyridin-3-yl)pyrazolo[1,5-a]pyrimidine-3-carboxamide]	+ (Compounds with a Cisplatin sensitization value >0.2 μM but <5 μM are marked with “+.”)
CC(=O)N1CCC(c2ccncc2NC(=O)c2c(N)nn3cc(F)cnc23)CC1 [I-C-69, N-(4-(1-acetylpiperidin-4-yl)pyridin-3-yl)-2-amino-6-fluoropyrazolo[1,5-a]pyrimidine-3-carboxamide]	+++ (Compounds with a Cisplatin sensitization value of <0.02 μM are marked with “+++.”)
Nc1nn2cc(F)cnc2c1C(=O)Nc1cnccc1C1CCN(C(=O)C2CC2)CC1 [I-C-70, 2-amino-N-(4-(1-(cyclopropanecarbonyl)piperidin-4-yl)pyridin-3-yl)-6-fluoropyrazolo[1,5-a]pyrimidine-3-carboxamide]	+++ (Compounds with a Cisplatin sensitization value of <0.02 μM are marked with “+++.”)
N#CC1(C(=O)N2CCC(c3ccncc3NC(=O)c3c(N)nn4cc(F)cnc34)CC2)CC1 [I-C-71, 2-amino-N-(4-(1-(1-cyanocyclopropanecarbonyl)piperidin-4-yl)pyridin-3-yl)-6-fluoropyrazolo[1,5-a]pyrimidine-3-carboxamide]	+++ (Compounds with a Cisplatin sensitization value of <0.02 μM are marked with “+++.”)
Cn1nncc1-c1ccncc1NC(=O)c1c(N)nn2cc(F)cnc12 [I-C-72, 2-amino-6-fluoro-N-(4-(1-methyl-1H-1,2,3-triazol-5-yl)pyridin-3-yl)pyrazolo[1,5-a]pyrimidine-3-carboxamide]	+++ (Compounds with a Cisplatin sensitization value of <0.02 μM are marked with “+++.”)
CN1CCC(c2ccncc2NC(=O)c2c(N)nn3cc(F)cnc23)CC1=O (stereo not shown) [I-C-73, 2-amino-6-fluoro-N-(4-(1-methyl-2-oxopiperidin-4-yl)pyridin-3-yl)pyrazolo[1,5-a]pyrimidine-3-carboxamide]	++ (Compounds with a Cisplatin sensitization value >0.02 μM but <0.2 μM are marked with “++.”)
Cn1ccc2c(NC(=O)c3c(N)nn4cc(F)cnc34)cncc21 [I-C-74, 2-amino-6-fluoro-N-(1-methyl-1H-pyrrolo[2,3-c]pyridin-4-yl)pyrazolo[1,5-a]pyrimidine-3-carboxamide]	+ (Compounds with a Cisplatin sensitization value >0.2 μM but <5 μM are marked with “+.”)
Nc1nn2cc(F)cnc2c1C(=O)Nc1cnccc1C1CCOC1 (stereo not shown) [I-C-75, 2-amino-6-fluoro-N-(4-(tetrahydrofuran-3-yl)pyridin-3-yl)pyrazolo[1,5-a]pyrimidine-3-carboxamide]	++ (Compounds with a Cisplatin sensitization value >0.02 μM but <0.2 μM are marked with “++.”)
Nc1nn2cc(F)cnc2c1C(=O)Nc1cnccc1CN1CCCC1=O [I-C-76, 2-amino-6-fluoro-N-(4-((2-oxopyrrolidin-1-yl)methyl)pyridin-3-yl)pyrazolo[1,5-a]pyrimidine-3-carboxamide]	+ (Compounds with a Cisplatin sensitization value >0.2 μM but <5 μM are marked with “+.”)
Cc1ncc(-c2ccncc2NC(=O)c2c(N)nn3cc(F)cnc23)n1C [I-C-77, 2-amino-N-(4-(1,2-dimethyl-1H-imidazol-5-yl)pyridin-3-yl)-6-fluoropyrazolo[1,5-a]pyrimidine-3-carboxamide]	+++ (Compounds with a Cisplatin sensitization value of <0.02 μM are marked with “+++.”)
Cc1ncn(C)c1-c1ccncc1NC(=O)c1c(N)nn2cc(F)cnc12 [I-C-78, 2-amino-N-(4-(1,4-dimethyl-1H-imidazol-5-yl)pyridin-3-yl)-6-fluoropyrazolo[1,5-a]pyrimidine-3-carboxamide]	++ (Compounds with a Cisplatin sensitization value >0.02 μM but <0.2 μM are marked with “++.”)
Cn1cncc1-c1c(F)cncc1NC(=O)c1c(N)nn2cc(F)cnc12 [I-C-79, 2-amino-6-fluoro-N-(5-fluoro-4-(1-methyl-1H-imidazol-5-yl)pyridin-3-yl)pyrazolo[1,5-a]pyrimidine-3-carboxamide]	+++ (Compounds with a Cisplatin sensitization value of <0.02 μM are marked with “+++.”)
